pIC50: −log10 of the molar value.
Key:
Type in all cases: biochemical
[1] = target: T1, protein tyrosine phosphatase 1B (PTP1B) (Homo sapiens, UniProt P18031); test: High-resolution dose-response screening of PTP1B with a chemical library in droplets, FDP substrate
T1 construct: purchased EMD Biosciences, Inc
T1 sequence (P18031 1-435): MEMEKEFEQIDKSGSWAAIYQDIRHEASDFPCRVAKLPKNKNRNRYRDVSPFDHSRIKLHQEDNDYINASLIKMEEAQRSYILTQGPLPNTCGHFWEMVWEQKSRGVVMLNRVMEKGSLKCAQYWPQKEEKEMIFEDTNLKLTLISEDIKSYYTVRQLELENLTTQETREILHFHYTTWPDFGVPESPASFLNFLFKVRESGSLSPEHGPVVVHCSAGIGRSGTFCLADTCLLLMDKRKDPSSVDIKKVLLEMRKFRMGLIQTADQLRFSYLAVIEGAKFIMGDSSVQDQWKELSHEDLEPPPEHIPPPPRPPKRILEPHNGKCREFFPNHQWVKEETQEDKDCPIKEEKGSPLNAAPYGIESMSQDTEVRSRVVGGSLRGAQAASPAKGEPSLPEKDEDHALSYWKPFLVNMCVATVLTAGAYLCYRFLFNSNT
Experimental: High-resolution dose-response screening of PTP1B inhibition was performed in a similar manner to the screening of β-galactosidase inhibition (see above), but with the following changes: 50 mM HEPES pH 7.2 was used in place of PBS; the enzyme solution was 20 mg/l PTP1B in 50 mM HEPES pH 7.2 containing 4 mM DTT, 4 mM EDTA, and 4 g/l BSA; and the substrate solution was 68 μM FDP in 50 mM HEPES pH 7.2. In place of the 96-well plate were two 384-well plates containing 704 compounds comprising a subset of the Prestwick Chemical Library® (FIG. 21). These plates were prepared by diluting 1 μl aliquots of the compounds in pure DMSO to 10 μl of 240 μM concentration in 50 mM HEPES pH 7.2 by serial dilution. The compounds occupied columns 1 to 22 of each plate, while the wells in column 23 contained 10 μl of 240 μM sodium suramin (in the same buffer) and the wells in column 24 contained 10 μl of buffer alone.
Injections were performed as described above. […] In this case the dispersion coefficients were assumed to be identical and the compound concentration in each droplet was calculated by assuming a linear correlation between NIR fluorescence and compound concentration.

PTP1B = target: T2, PTP1B (Homo sapiens, UniProt P18031); test: Microplate dose-response assay, PTP1B
T2 construct: purchased EMD Biosciences, Inc
T2 sequence (P18031 1-435): T1 sequence (P18031 1-435)
Experimental: For PTP1B, the same approach was used with the following alterations: the inhibitor was diluted in 50 mM HEPES pH 7.2; the solution of enzyme was 10 mg/l PTP1B (EMD Biosciences, Inc., California, USA) in 50 mM HEPES pH 7.2 containing 2 mM DTT, 2 mM EDTA, and 2 g/l BSA; and the solution of substrate was 68 μM FDP in 50 mM HEPES pH 7.2.

β-galactosidase [2] = target: T3, β-galactosidase (Escherichia coli, UniProt P00722); test: Droplet microfluidic KM measurement, on-chip dilution system (Example 1e); design: purchased Sigma-Aldrich Co; conditions: 75 s droplet incubation, Michaelis-Menten fit, read-out: KM of RBG in the enzyme/substrate system
Experimental: In the examples, the model systems comprised an enzyme, a substrate, and an inhibitor for IC50 measurements and an enzyme and substrate alone for KM measurements. In all cases the enzyme was β-galactosidase (Sigma-Aldrich Co.), the substrate was resorufin β-D-galactopyranoside (RBG; Invitrogen Corporation), and the inhibitor was phenylethyl β-D-thiogalactopyranoside (PETG; Invitrogen Corporation).
An aqueous phase of 520 μM RBG (the substrate), 100 μM sodium fluorescein, and 5% (v/v) DMSO in PBS were injected into the ‘compound’ input of the microfluidic device (FIG. 4) at a flow rate of 111 μl/hr. A second aqueous phase, 5% (v/v) DMSO in PBS, was injected into the ‘diluent’ input at a flow rate of 389 μl/hr. […]
A series of microdroplets were created containing RBG (and sodium fluorescein) at different concentrations: from zero to 260 μM (50 μM sodium fluorescein) and then from 260 μM to zero. […] The amounts of fluorescent resorufin (liberated by β-galactosidase activity) and sodium fluorescein were measured for each droplet by monitoring fluorescence intensity in the 590-625 and 500-520 nm channels, respectively.
A Michaelis-Menten curve was fitted to the points using the DRC package in R (FIG. 8). […] This value compares favorably to the value measured in a standard microplate assay: 115.6 μM (95% confidence intervals: 102.7-128.6 μM).

β-galactosidase [3] = target: T3, β-galactosidase; test: Standard microplate assay (Example 1 comparison values); design: purchased Sigma-Aldrich Co; conditions: read-out: KM of RBG measured in a standard microplate assay

T3 sequence (P00722 2-1024 limits assumed): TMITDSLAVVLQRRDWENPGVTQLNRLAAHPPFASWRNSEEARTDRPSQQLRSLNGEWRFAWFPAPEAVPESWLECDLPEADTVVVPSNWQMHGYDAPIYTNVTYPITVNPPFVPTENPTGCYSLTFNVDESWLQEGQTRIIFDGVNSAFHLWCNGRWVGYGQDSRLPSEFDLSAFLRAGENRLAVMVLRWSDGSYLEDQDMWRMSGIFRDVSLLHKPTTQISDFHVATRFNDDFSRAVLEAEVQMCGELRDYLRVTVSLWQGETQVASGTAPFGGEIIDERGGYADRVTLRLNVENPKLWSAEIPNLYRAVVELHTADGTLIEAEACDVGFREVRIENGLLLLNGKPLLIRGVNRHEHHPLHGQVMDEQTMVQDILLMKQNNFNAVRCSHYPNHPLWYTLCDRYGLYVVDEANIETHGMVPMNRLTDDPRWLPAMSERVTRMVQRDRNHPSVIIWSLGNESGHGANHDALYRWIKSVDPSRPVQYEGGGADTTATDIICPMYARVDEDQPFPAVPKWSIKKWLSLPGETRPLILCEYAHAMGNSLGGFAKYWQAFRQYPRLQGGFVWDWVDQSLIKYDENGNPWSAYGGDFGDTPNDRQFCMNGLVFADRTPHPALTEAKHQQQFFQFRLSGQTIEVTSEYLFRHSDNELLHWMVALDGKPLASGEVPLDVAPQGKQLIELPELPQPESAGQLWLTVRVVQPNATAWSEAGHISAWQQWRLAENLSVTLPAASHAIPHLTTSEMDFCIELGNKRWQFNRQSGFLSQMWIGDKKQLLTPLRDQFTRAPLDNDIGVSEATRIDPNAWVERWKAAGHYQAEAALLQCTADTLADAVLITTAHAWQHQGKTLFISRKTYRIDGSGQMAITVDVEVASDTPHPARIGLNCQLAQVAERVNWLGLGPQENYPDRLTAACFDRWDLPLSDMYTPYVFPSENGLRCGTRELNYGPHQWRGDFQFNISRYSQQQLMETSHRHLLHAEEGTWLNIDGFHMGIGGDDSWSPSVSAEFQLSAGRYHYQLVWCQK

## Cn1cc[nH]c1=S [methimazole]
[1]; droplets
  effect on PTP1B in high-resolution dose-response curves: weak inhibitor
PTP1B
  confirmation of activity in microplate: not confirmed in microplate

## Cc1ccc(C(=O)Nc2ccc(S(=O)(=O)[O-])c3cc(S(=O)(=O)[O-])cc(S(=O)(=O)[O-])c23)cc1NC(=O)c1cccc(NC(=O)Nc2cccc(C(=O)Nc3cc(C(=O)Nc4ccc(S(=O)(=O)[O-])c5cc(S(=O)(=O)[O-])cc(S(=O)(=O)[O-])c45)ccc3C)c2)c1.[Na+].[Na+].[Na+].[Na+].[Na+].[Na+] [sodium suramin]
[1]; 50 μM droplets
  inhibition: 89.9%
[1]; droplets
  effect on PTP1B in high-resolution dose-response curves: activate PTP1B at low concentrations (<10 μM) and inhibit it at higher concentrations
PTP1B
  confirmation of activity in microplate: confirmed in microplate

## O=C(O)c1cc(-c2ccc(F)cc2F)ccc1O [diflunisal]
[1]; droplets
  effect on PTP1B in high-resolution dose-response curves: weak activator
PTP1B
  confirmation of activity in microplate: confirmed in microplate

## O=c1ccc2nc3ccc(O[C@@H]4O[C@H](CO)[C@H](O)[C@H](O)[C@H]4O)cc3oc-2c1 [RBG, resorufin β-D-galactopyranoside]
β-galactosidase [2]
  Km: 446 µM
β-galactosidase [3]
  Km: 116 µM

## NC(=O)c1cc[n+](CC2=C(C(=O)[O-])N3C(=O)[C@@H](NC(=O)[C@@H](c4ccccc4)S(=O)(=O)[O-])[C@H]3SC2)cc1.[Na+] [sodium cefsulodine]
[1]; droplets
  effect on PTP1B in high-resolution dose-response curves: strong inhibition of PTP1B
[1]; droplets, 4-parameter Hill fit
  pIC50: 4.48
PTP1B
  confirmation of activity in microplate: confirmed in microplate
